For one test, the target named is WDR5^WT (WIN site) (Homo sapiens, UniProt P61964). Conditions: for inhibition at the WIN site: competitive FP, tracer 1F.
The test system of test [1] is FOXD3-AS1 expression in MDA-MB-231 cells. Conditions: for FOXD3-AS1 fold change: mean ± SD.
Another test addresses WDR5^WT (WBM site) (Homo sapiens, UniProt P61964).
Test [2] has as its system HOTTIP expression in MDA-MB-231 cells. Conditions: for HOTTIP fold change: mean ± SD.
The test system of test [3] is TGF-β1 expression in MDA-MB-231 cells. The settings on record: 3 d, vs blank = 1.000, mean ± SD.
Setting [4] is: 1 µM, 3 d, exp 8 (individual bioreplicate), vs blank = 1.000.
Where [5] appears, read: 1 µM, 3 d, exp 9 (individual bioreplicate), vs blank = 1.000.
[6] abbreviates: 5 µM, 3 d, exp 7 (individual bioreplicate), vs blank = 1.000.
Where [7] appears, read: 5 µM, 3 d, exp 8 (individual bioreplicate), vs blank = 1.000.
The mark [8] stands for this setting: 5 µM, 3 d, exp 9 (individual bioreplicate), vs blank = 1.000.
Where [9] appears, read: 10 µM, 1 d, Exp. 1 (individual bioreplicate), vs blank 0.1% DMSO = 1.000.
The mark [10] stands for this setting: 10 µM, 1 d, Exp. 2 (individual bioreplicate), vs blank 0.1% DMSO = 1.000.
[11] abbreviates: 10 µM, 1 d, Exp. 3 (individual bioreplicate), vs blank 0.1% DMSO = 1.000.
Setting [12] is: 10 µM, 1 d, Exp. 4 (individual bioreplicate), vs blank 0.1% DMSO = 1.000.
[13] abbreviates: 10 µM, 1 d, Exp. 5 (individual bioreplicate), vs blank 0.1% DMSO = 1.000.
Setting [14] is: 10 µM, 1 d, Exp. 6 (individual bioreplicate), vs blank 0.1% DMSO = 1.000.
Setting [15] is: 10 µM, 3 d, Exp. 7 (individual bioreplicate), vs blank 0.1% DMSO = 1.000.
Where [16] appears, read: 10 µM, 3 d, Exp. 8 (individual bioreplicate), vs blank 0.1% DMSO = 1.000.
Setting [17] is: 10 µM, 3 d, Exp. 9 (individual bioreplicate), vs blank 0.1% DMSO = 1.000.
Where [18] appears, read: 10 µM, 3 d, Exp. 10 (individual bioreplicate), vs blank 0.1% DMSO = 1.000.
Where [19] appears, read: 10 µM, 3 d, Exp. 11 (individual bioreplicate), vs blank 0.1% DMSO = 1.000.
The mark [20] stands for this setting: 10 µM, 3 d, Exp. 12 (individual bioreplicate), vs blank 0.1% DMSO = 1.000.
Where [21] appears, read: MDA-MB-231, three days, 1/5/10 μM tested.

Where two headings read alike, the source gives them in different places. Bridge positions count the residues as written; N and C are the ends. Square brackets hold non-standard residues; d marks the D form. Peptide text beside a SMILES is read from it. Dab = NCC[C@H](N)C(=O)O Bounds are passed on as bounds.

On to `CC[C@H](C)[C@H](NC(=O)[C@H](CCC(=O)O)NC(=O)[C@H](CCC(=O)O)NC(=O)[C@H](CCC(=O)O)NC(=O)[C@H](CC(=O)O)NC(C)=O)C(=O)N[C@H]1CC(=O)NCC[C@@H](C(=O)N[C@H](C(=O)N[C@@H](CCC(=O)O)C(N)=O)C(C)C)NC(=O)[C@H](C(C)C)NC(=O)[C@H](C(C)C)NC1=O` [2Ac] (Ac-DEEEIDVV[Dab]VE-NH2; lactam 6-9), for which the “inhibition at the WIN site” value at WDR5^WT (WIN site) was “vice versa”.
For the compound `CNC(=O)c1cc(C2(C#N)CCC2)cc(NS(=O)(=O)c2cc(Br)cc(Cl)c2O)c1O` [7k, 3-((5-Bromo-3-chloro-2-hydroxyphenyl)sulfonamido)-5-(1cyanocyclobutyl)-2-hydroxy-N-methylbenzamide], the “inhibition at the WIN site” value on WDR5^WT (WIN site) is listed as “did not observe any crossover inhibition”. Besides, the Ki – broadly, a measure of affinity in units of concentration, obtained from inhibition or displacement – at WDR5^WT (WIN site) (read-out: Ki (tracer 1F), WIN site, WDR5^WT 2 nM, 1F 0.6 nM, HEPES pH 7.0, 0.01% Triton-X, 1% DMSO, mean ± SD of four replicates (two biological x two technical), converted from IC50) is above 40000 nM; on WDR5^WT (WBM site) (read-out: Ki (tracer 2F), WBM site, WDR5^WT 500 nM, 2F 5.0 nM, HEPES pH 7.0, 0.01% Triton-X, 1% DMSO, mean ± SD of four replicates (two biological x two technical), converted from IC50) it was 107 ± 20 nM. Also, the FOXD3-AS1 fold change in test [1] (setting [4]) came out at 0.984 ± 0.128; in test [1] (setting [5]), 0.971 ± 0.104; in test [1] (setting [6]) it was 0.753 ± 0.078; in test [1] (setting [7]), 1.178 ± 0.131; in test [1] (setting [8]) it was 1.020 ± 0.085; in test [1] (setting [9]), 0.913 ± 0.098. Besides, the FOXD3-AS1 fold change in test [1] (setting [10]) turned out to be 1.000 ± 0.050; in test [1] (setting [11]), 0.842 ± 0.122; in test [1] (setting [12]), 0.826 ± 0.055; in test [1] (setting [13]), 1.053 ± 0.047; in test [1] (setting [14]), 0.901 ± 0.056; in test [1] (setting [15]) it was 0.756 ± 0.076. Besides, the FOXD3-AS1 fold change is given as 1.075 ± 0.124 in test [1] (setting [16]); 0.847 ± 0.077 in test [1] (setting [17]); 0.798 ± 0.040 in test [1] (setting [18]); 0.944 ± 0.033 in test [1] (setting [19]); 0.650 ± 0.065 in test [1] (setting [20]). Also, the HOTTIP fold change was 0.923 ± 0.164 in test [2] (1 µM, 3 d, exp 7 (individual bioreplicate), vs blank = 1.000); 0.821 ± 0.069 in test [2] (setting [4]); 1.189 ± 0.152 in test [2] (setting [5]); 0.643 ± 0.184 in test [2] (setting [6]); 0.877 ± 0.062 in test [2] (setting [7]); 0.915 ± 0.153 in test [2] (setting [8]). Moreover, the HOTTIP fold change in test [2] (setting [9]) is 0.963 ± 0.284; in test [2] (setting [10]), 1.521 ± 0.182; in test [2] (setting [11]), 1.129 ± 0.176; in test [2] (setting [12]), 0.970 ± 0.197; in test [2] (setting [13]) it was 0.988 ± 0.141; in test [2] (setting [14]), 0.618 ± 0.071. In addition, the HOTTIP fold change in test [2] (setting [15]) stood at 0.464 ± 0.082; in test [2] (setting [16]), 0.570 ± 0.035; in test [2] (setting [17]), 0.733 ± 0.095; in test [2] (setting [18]) it was 0.646 ± 0.116; in test [2] (setting [19]) it was 1.031 ± 0.214; in test [2] (setting [20]) it was 0.548 ± 0.132. In test [2] (setting [21]), the “concentration required for significant changes of HOTTIP expression” value is 10 µM. Further, the TGF-β1 fold change in test [3] (1 µM, exp 7 (individual bioreplicate)) turned out to be 0.972 ± 0.048; in test [3] (1 µM, exp 8 (individual bioreplicate)), 1.020 ± 0.062; in test [3] (1 µM, exp 9 (individual bioreplicate)) it was 1.060 ± 0.127; in test [3] (5 µM, exp 7 (individual bioreplicate)), 0.916 ± 0.056; in test [3] (5 µM, exp 8 (individual bioreplicate)) it was 1.009 ± 0.079; in test [3] (5 µM, exp 9 (individual bioreplicate)), 1.003 ± 0.120. The TGF-β1 fold change turned out to be 0.972 ± 0.055 in test [3] (10 µM, exp 7 (individual bioreplicate)); 0.987 ± 0.059 in test [3] (10 µM, exp 8 (individual bioreplicate)); 0.942 ± 0.101 in test [3] (10 µM, exp 9 (individual bioreplicate)).
As for `CN1CCN(c2ccc(-c3cccc(CN4CCOCC4)c3)cc2NC(=O)c2c[nH]c(=O)cc2C(F)(F)F)CC1` [OICR-9429], the “concentration of maximum effect on FOXD3-AS1 expression” value in test [1] (setting [21]) came to 5 µM. Moreover, in test [2] (setting [21]), the “concentration of maximum effect on HOTTIP expression” value stood at 5 µM.
Turning to `CC(=O)N[C@@H](C)C(=O)N[C@@H](CCCNC(=N)N)C(=O)N[C@H](C(=O)N[C@@H](CCC(=O)O)C(=O)N[C@H](C(=O)N[C@@H](Cc1c[nH]cn1)C(=O)N[C@@H](CC(C)C)C(=O)N[C@@H](CCCNC(=N)N)C(=O)N[C@@H](CCCCN)C(=O)N[C@@H](CO)C(N)=O)C(C)C)[C@@H](C)O` [1NH2], at WDR5^WT (WBM site) (competitive FP, tracer 2F), the “inhibition at the WBM site” value is recorded as “does not inhibit the WBM-site”.
